Results: patent US12415819B2, “Cu- and Ni-catalyzed decarboxylative borylation reactions” (The Scripps Research Institute, priority 2017, dated 2025)
Like-named read-outs stand apart in the source and are kept apart here. Residues, ends and D or L forms follow the SMILES beside them. *: point of attachment. Moc = COC(=O)*

Experiments:
[1] = biological target: human neutrophil elastase (Homo sapiens (Human), UniProt P08246); test: Elastase inhibition assay, purified human neutrophil elastase; assay type: biochemical; conditions: for IC50 / LipE: Purified NHE; for IC50: 30 minutes incubation at room temperature, 100 μM substrate
Chain of human neutrophil elastase (P08246 30-247): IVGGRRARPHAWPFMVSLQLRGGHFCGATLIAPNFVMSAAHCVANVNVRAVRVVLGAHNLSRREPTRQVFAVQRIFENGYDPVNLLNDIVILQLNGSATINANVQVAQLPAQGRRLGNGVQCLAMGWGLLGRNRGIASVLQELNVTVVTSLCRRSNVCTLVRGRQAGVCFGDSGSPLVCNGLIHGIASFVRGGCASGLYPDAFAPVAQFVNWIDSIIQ
Protocol: Serially diluted compounds in DMSO were dispensed into a 384-well black opaque plate by Echo dispenser. 0.1 μg/mL human neutrophil elastase (EPC, Catalog# SE563, Owensville, Ms.) or human sputum diluted with assay buffer (100 mM HEPES, 500 mM NaCl, 0.02% Tween 20) was added into the 384-well plate, and was incubated with different compounds at different concentrations for 30 minutes at room temperature. The final concentration of DMSO in the reaction was 0.1%. […] Slope of fluorescence intensity vs. time representing the Vmax of enzyme activity was calculated with MARS software. % relative inhibition was calculated as: […]
(§1) IC50 was calculated based on the % relative inhibition curve using log(agonist) vs. response (three parameters) method with Prism software. All experiments were performed in triplicate for at least three independent times.

[2] = biological target: elastase in COPD patient sputum (Homo sapiens (Human), UniProt P08246); test: Elastase inhibition assay in COPD patient sputum; assay type: biochemical
Chain of elastase in COPD patient sputum (P08246 30-267): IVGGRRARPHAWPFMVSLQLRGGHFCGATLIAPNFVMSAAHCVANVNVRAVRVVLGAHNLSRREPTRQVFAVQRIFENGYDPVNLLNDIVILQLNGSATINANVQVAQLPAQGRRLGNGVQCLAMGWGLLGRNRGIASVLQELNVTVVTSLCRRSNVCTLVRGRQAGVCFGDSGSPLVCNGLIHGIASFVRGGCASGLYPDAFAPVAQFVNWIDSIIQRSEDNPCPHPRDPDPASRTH
Protocol: (§2) Serially diluted compounds in DMSO were dispensed into a 384-well black opaque plate by Echo dispenser. 0.1 μg/mL human neutrophil elastase (EPC, Catalog# SE563, Owensville, Ms.) or human sputum diluted with assay buffer (100 mM HEPES, 500 mM NaCl, 0.02% Tween 20) was added into the 384-well plate, and was incubated with different compounds at different concentrations for 30 minutes at room temperature. The final concentration of DMSO in the reaction was 0.1%. Elastase substrate MeOSuc-AAPV-AMC (Bachem, Catalog #I-1270, Torrance, CA) of 100 μM final concentration was then added into the reaction system just before enzyme kinetics were read on PheraSTAR plate reader at excitation of 380 nm and emission of 460 nm with a 3-minutes interval for 30 minutes in total. Slope of fluorescence intensity vs. time representing the Vmax of enzyme activity was calculated with MARS software. % relative inhibition was calculated as: […]
as §1
(§3) Human sputum was purchased from Discovery Life Sciences (Los Osos, CA). Human sputum was diluted 1:10 in volume with assay buffer (100 mM HEPES, 500 mM NaCl, 0.02% Tween 20) followed by vigorous vortexing. The 1:10 diluted human sputum was further diluted into 1:30, 1:90, 1:270, 1:810, and 1:2430. The elastase concentration was determined by elastase inhibition assay as described above. Specifically, a series of standards of human neutrophil elastase (starting at 2 μg/mL and further diluted 1:2 in volume) were prepared in the assay buffer. The samples and standards were plated in a 384-well black solid bottom plate; the substrate MeOSuc-AAPV-AMC of 100 μM final concentration was then added into the reaction system just before enzyme kinetics were read on PheraSTAR plate reader as mentioned above. The slope of enzymatic kinetic reading was calculated by MARS software. The elastase levels of the human sputum were calculated based on the standard curve.

[3] = biological target: elastase in CF patient sputum (Homo sapiens (Human), UniProt P08246); test: Elastase inhibition assay in CF patient sputum; assay type: biochemical; conditions: for IC50 / LipE: CF sputum
Chain of elastase in CF patient sputum (P08246 30-267): as above
Protocol: as §2, §1, §3

[4] = Mouse Liver Microsomal Metabolic Stability Assay; conditions: for Remaining (*NCF = 60min): MLM 0.5, no co-factor; for Remaining (T = 60 min): MLM 0.5, with NADPH regenerating system
Protocol: 100 mM potassium phosphate buffer, pH 7.4. • 2. 10 mM MgCl2 • 3) Compound Dilution:
Intermediate solution was prepared by diluting 5 μL of compound or control stock solution (10 mM in DMSO) with DMSO (45 μL) and 1:1 Methanol/Water (450 μL) (concentration=100 μM, 45% MeOH). Working solution was prepared by diluting 50 μL of the intermediate solution with 450 μL of 100 mM potassium phosphate buffer, pH=7.4 (centration=10 μM, 4.5% MeOH). • 4) NADPH regenerating system (final Isocitric dehydrogenase concentration=1 unit/mL at incubation) comprised:
10 μL/well of compound working solution or control working solution was added to all plates (T0, T5, T10, T20, T30, T60, NCF60) except the matrix blank. 80 μL/well of microsome solution was added to every plate. The mixtures of microsome solution and compound were incubated at 37° C. for about 10 min. 10 μL/well of NADPH regenerating system (pre-warmed to 37° C.) was then added to every plate to start the reaction. […] For NCF60 (abbreviation of no co-factor) no NADPH regenerating system was added, but was replaced by 10 μL/well of potassium phosphate buffer (100 mM, pH 7.4); the resulting mixture was incubated at 37° C. for 1 h.
The reactions were then terminated with the stop solution (cold at 4° C.) containing 100 ng/mL Tolbutamide and 100 ng/mL Labetalol ([…]). The sampling plates were shaken for approximately 10 minutes, then were centrifuged at 4000 rpm for 20 min at 4° C. While centrifuging, 8 new 96 well plates were loaded with […] of HPLC grade water. 100 μL of supernatant was finally added to 300 μL of HPLC grade water and mixed for LC/MS/MS analysis.
The equation of first order kinetics was used to calculate T1/2 and CIint(mic): […]

[5] = Caco-2 Permeability Assay; conditions: human
Protocol: Digoxin, fenoterol, and propranol were used as standards respectively. Transport Method:
The transport buffer used in the study was HBSS with 10 mM HEPES at pH 7.40±0.05. Compounds were tested at 2 μM bi-directionally in duplicates. Digoxin was tested at […] bi-directionally in a duplicate, while fenoterol and propranolol were tested at 2 μM in A(apical) to B (basolateral) direction in duplicates. The final DMSO concentration was adjusted to less than 1%. The plate was incubated for 2 hours in a CO2 incubator at 37±1° C., with 5% CO2 at saturated humidity without shaking. All samples, after mixing with acetonitrile containing internal standard, were centrifuged at 4000 rpm for 20 min. Subsequently,100 μL supernatant solution was diluted with 100 μL distilled water for LC/MS/MS analysis. Concentrations of test and control compounds in starting solution, donor solution, and receiver solution were quantified by LC/MS/MS methodologies, using peak area ratio of analyte/internal standard. After transport assay, lucifer yellow rejection assay was applied to determine the Caco-2 cell monolayer integrity.
Data analysis: The apparent permeability coefficient Papp (cm/s) was calculated using the equation:
The efflux ratio was calculated using the equation: Efflux ratio=Papp(BA)/Papp(AB)
Percent recovery was calculated using the equation: % Recovery=100×[(Vr·Cr)+(Vd·Cd)]/(Vd·C0) Where Vd is the volume in the donor chambers (0.075 mL on the apical side, 0.25 mL on the basolateral side); Cd and Cr are the final concentrations of transport compound in donor and receiver chambers, respectively.

Plasma Stability Assay = assay type: in vitro ADME, mouse; conditions: CD-1 Mouse Plasma
Protocol: Propantheline was used as the reference compound in this assay; all stock solutions were stored at −40° C. before use. • 2) Test system: CD-1 Mouse Plasma from a minimum of 20 male individuals were obtained from BioreclamationlVT (Catalog #: […]2-M; Batch #: MSE244515). EDTA-K2 was used as the anticoagulant. Procedure:
The frozen plasma was thawed in a water bath at 37° C. prior to the experiments. The plasma was centrifuged at 4000 rpm for 5 min and the clots were removed if necessary.
The pH was adjusted to 7.4±0.1 as necessary. An intermediate solution (1 mM) was prepared and a 100 μM dosing solution was prepared by diluting 10 μL of the intermediate solution with 90 μL 45% MeOH/H2O. Duplicate of test samples were made by mixing 98 μL of blank plasma with 2 μL of dosing solution (100 μM) to achieve the final concentration of 2 μM. Samples were incubated at 37° C. At each time point (0, 10, 30, 60, and 120 min), 400 μL of stop solution (consisting of 200 ng/mL tolbutamide and 20 ng/mL buspirone in 50% MeOH/CH3CN) was added to precipitate protein under thorough mixing. The sample plates were then centrifuged at 4,000 rpm for 10 min. An aliquot of supernatant (100 μL) was transferred from each well and mixed with 200 of μL ultrapure water. The samples were shaken at 800 rpm for about 10 min before LC-MS/MS analysis.
Data analysis: The % remaining of test compound after incubation in plasma was calculated using following equation: Remaining=100×(PAR at Tn/PAR at T0) where PAR is the peak area ratio of analyte versus internal standard (IS) and The appointed incubation time points are T0 (0 min), Tn (n=0, 10, 30, 60, 120 min).
LC-MS/MS condition: Each compound was analyzed by LC/MS using an ACE 5-phenyl 50×2.1 mm column (Part No. ACE-125-0502) with 0.1% formic acid in water and 0.1% formic acid in acetonitrile as the mobile phases. Tobultamide was used as the internal standard. Data collected were processed by Analyst 1.6.2 software and MultiQuant 3.0.2 software.

[6] = mouse, liver microsomes, pH 7.4
[7] = Caco-2, pH 7.4, Mean Recovery % A to B

Compound: COC(=O)N[C@H](C(=O)N1CCC[C@H]1C(=O)N[C@H](C(=O)O)C(C)C)C(C)C [Compound 50b, (methoxycarbonyl)-L-valyl-L-prolyl-L-valine] (Moc-Val-Pro-Val-OH)
- inhibitory activity against HNE (in words) [1]: devoid of any inhibitory activities
- IC50 [1]: Not Active

Compound: Cc1c(-c2ccnn2C)cc(C(=O)NCc2ccc(S(C)(=O)=O)cn2)c(=O)n1-c1cccc(C(F)(F)F)c1 [Compound 53]
- IC50 [2]: 2.98 ± 0.82 nM
- LipE [2]: 7.22
- LipE [1]: 7.32
- IC50 ([1]; read-out: IC50): 2.62 ± 0.39 nM
- IC50 [3]: 4.08 ± 0.39 nM
- LipE [3]: 7.11

Compound: CC1=C(C#N)[C@@H](c2ccc(C#N)cc2S(C)(=O)=O)N(C)C(=O)N1c1cccc(C(F)(F)F)c1 [Compound 54, BAY 85-8501]
- LipE [2]: 6.85
- LipE [1]: 6.76
- LipE [3]: 5.87
- inhibitory activity in patient sputum versus purified HNE (in words) ([3]; sputum samples of CF and COPD patients): potencies diminished drastically

Compound: COC(=O)C1=C(C)N(c2cccc(C(F)(F)F)c2)c2n[nH]c(=O)n2C1c1ccc(C#N)cc1 (stereo not drawn) [Compound 56]
- IC50 [2]: 1.12 ± 0.04 nM
- LipE [2]: 4.67
- LipE [1]: 4.59
- IC50 ([1]; read-out: IC50): 1.34 ± 0.13 nM
- IC50 [3]: 2.68 ± 0.04 nM
- LipE [3]: 4.29

Compound: COC(=O)C1=C(C)N(c2cccc(C(F)(F)F)c2)c2nn(CC(=O)N(C)CCC[N+](C)(C)C)c(=O)n2C1c1ccc(C#N)cc1 (stereo not drawn) [Compound 57]
- IC50 [2]: 0.97 ± 0.14 nM
- LipE [2]: 9.45
- LipE [1]: 9.46
- IC50 ([1]; read-out: IC50): 0.99 ± 0.13 nM
- IC50 [3]: 2.04 ± 0.08 nM
- LipE [3]: 9.16

Compound: O=C(O)Cc1ccccc1Nc1c(Cl)cccc1Cl [Diclofenac]
- Remaining (*NCF = 60min) [4]: 88.0%
- Remaining (T = 60 min) [4]: 43.0%
- Extraction ratio ([4]; MLM 0.5, Qh 90.0 mL/min/Kg): 0.5
- CLint scaled at 1 μM [4, 6]: 108 mL/min/kg
- microsomal CLint at 1 μM [4, 6]: 27.2 µL/min/mg
- half-life at 1 μM ([4]; mouse, microsomes, pH 7.4): 51 min

Compound: C[C@H]1O[C@@H](O[C@H]2[C@@H](O)C[C@H](O[C@H]3[C@@H](O)C[C@H](O[C@H]4CC[C@@]5(C)[C@H](CC[C@@H]6[C@@H]5C[C@@H](O)[C@]5(C)[C@@H](C7=CC(=O)OC7)CC[C@]65O)C4)O[C@@H]3C)O[C@@H]2C)C[C@H](O)[C@@H]1O [Digoxin]
- Papp A→B at 120 min, 2 μM ([5]; Caco-2, pH 7.4): < 0.02 ×10⁻⁶ cm/s
- Papp B→A at 120 min, 2 μM ([5]; Caco-2, pH 7.4): 8.5 ×10⁻⁶ cm/s
- efflux ratio at 2 h, 2 μM ([5]; Caco-2, pH 7.4): > 364
- recovery at 2 h, 2 μM [5, 7]: < 91.2%
- recovery at 2 h, 2 μM ([5]; Caco-2, pH 7.4, Mean Recovery % B to A): 100%

Compound: CC(Cc1ccc(O)cc1)NCC(O)c1cc(O)cc(O)c1 (stereo not drawn) [Fenoterol]
- Papp A→B at 120 min, 2 μM ([5]; Caco-2, pH 7.4): 0.24 ×10⁻⁶ cm/s
- recovery at 2 h, 2 μM ([5]; Caco-2, pH 7.4): 93.4%

Compound: CC(C)[N+](C)(CCOC(=O)C1c2ccccc2Oc2ccccc21)C(C)C [Propantheline]
- % Remaining (mean) (Plasma Stability Assay; 0 min, 2 μM, 37° C.): 100.0%
- % Remaining (mean) (Plasma Stability Assay; 10 min): 76.8%
- % Remaining (mean) (Plasma Stability Assay; 30 min): 39.1%
- % Remaining (mean) (Plasma Stability Assay; 60 min): 21.7%
- % Remaining (mean) (Plasma Stability Assay; 120 min): 7.7%

Compound: CC(C)NCC(O)COc1cccc2ccccc12 (stereo not drawn) [Propranolol]
- Papp A→B at 120 min, 2 μM ([5]; Caco-2, pH 7.4): 19.8 ×10⁻⁶ cm/s
- recovery at 2 h, 2 μM [5, 7]: 69.2%

Compound: C[C@]12CC[C@H]3[C@@H](CCC4=CC(=O)CC[C@@]43C)[C@@H]1CC[C@@H]2O [Testosterone]
- CLint(liver) ([4]; MLM 0.5): 2365.5 mL/min/kg
- Remaining (*NCF = 60min) [4]: 70.3%
- Remaining (T = 60 min) [4]: 0.0%
- half-life at 1 μM ([4]; mouse, microsomes, pH 7.4): 2.3 min
- microsomal CLint ([4]; mouse, microsomes, pH 7.4): 597 µL/min/mg

Compound: POL6014 [Compound 55]
- IC50 [2]: 0.051 ± 0.004 nM
- LipE [2]: 18.8
- IC50 ([1]; read-out: IC50): 0.093 ± 0.008 nM
- IC50 [3]: 0.48 ± 0.03 nM
- LipE [3]: 17.8
